In PMC3062745 (International journal for parasitology, 2011):
Where two headings read alike, the source gives them in different places.

What was measured:
[1] = target: T1, Leishmania mexicana arginase (LmARG) (Leishmania mexicana, UniProt Q6TUJ5); assay: Inhibitor profile of recombinant LmARG; format: biochemical; conditions: for block of LmARG activity (in words) / selective inhibition: preference for LmARG over HsARGI / inhibition of LmARG: 40 mM compound; for block of LmARG activity (in words) / inhibition of LmARG: 40 mM L-arginine substrate; for Type of Inhibition: Dixon plot analysis, or assumed where Ki was calculated from panel data; for Ki: Dixon plot analysis; for inhibition: read-out: inhibition of LmARG; for selective inhibition: preference for LmARG over HsARGI: 40 mM L-arginine, comparison of the two enzymes
human ARGI (HsARGI) [2] = target: T2, human ARGI (HsARGI) (Homo sapiens, UniProt P05089); assay: Inhibitor profile of recombinant HsARGI; format: biochemical; conditions: for block of HsARGI activity (in words) / selective inhibition: preference for HsARGI over LmARG / inhibition of HsARGI: 40 mM compound; for block of HsARGI activity (in words) / inhibition of HsARGI: 40 mM L-arginine substrate; for selective inhibition: preference for HsARGI over LmARG: 40 mM L-arginine, comparison of the two enzymes; for inhibition at 40000 µM: read-out: inhibition of HsARGI
T2 sequence (P05089 1-322): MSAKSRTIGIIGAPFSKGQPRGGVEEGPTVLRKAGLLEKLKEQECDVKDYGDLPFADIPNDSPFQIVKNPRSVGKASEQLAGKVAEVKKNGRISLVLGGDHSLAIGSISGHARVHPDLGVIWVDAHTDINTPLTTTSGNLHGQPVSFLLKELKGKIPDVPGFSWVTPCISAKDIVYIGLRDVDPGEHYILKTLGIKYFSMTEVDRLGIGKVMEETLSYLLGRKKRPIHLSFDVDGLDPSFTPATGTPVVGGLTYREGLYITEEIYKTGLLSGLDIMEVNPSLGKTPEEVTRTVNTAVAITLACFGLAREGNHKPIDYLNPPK

human ARGI (HsARGI) [3] = target: T2, human ARGI (HsARGI); assay: HsARGI kinetic parameters and substrate specificity; format: biochemical; conditions: 50 mM, no L-arginine, 30 min
[4] = target: T1, Leishmania mexicana arginase (LmARG); assay: LmARG kinetic parameters and substrate specificity; conditions: 50 mM, no L-arginine, 30 min; data not shown
[5] = target: T1, Leishmania mexicana arginase (LmARG); format: biochemical; conditions: co-activation with manganese and zinc; data not shown
N=C(N)NCCC[C@H](N)C(=O)O = assay: purified protein, by the assay type; conditions: other: non-linear regression, L-arginine 7.8 – 50 mM; pH 9.5; 37.0 °C
[6] = tested on: intact L. major promastigotes; conditions: ref Kropf et al., 2005; cited from earlier work
[7] = tested on: Leishmania mexicana promastigotes; assay: Parasite proliferation assay; format: cell-based; conditions: read-out: EC50 (concentration that inhibited growth by 50%); L. mexicana promastigotes, 5 days, alamarBlue; data not shown
L. major promastigotes = conditions: read-out: EC50 against L. major promastigotes; ref Reguera et al., 2009; cited from earlier work

In the case of `N[C@@H](CSCCB(O)O)C(=O)O` [BEC, S-(2-boronoethyl)-L-cysteine], the “block of LmARG activity (in words)” value [1] is reported as “completely blocked”, the “Type of Inhibition” value [1] is reported as “Competitive” and the Ki ([1]; Ki vs. LmARG) is reported as about 10 µM. The inhibition [1] was over 50%, the Ki (human ARGI (HsARGI) [2]) was 14 µM and the “block of HsARGI activity (in words)” value (human ARGI (HsARGI) [2]) was “completely blocked”.

In the case of `N[C@@H](CS)C(=O)O` [L-cysteine], the “selective inhibition: preference for LmARG over HsARGI” value (shortened to “selective inhibition … over HsARGI”) [1] is reported as “greater potency toward LmARG”, the “Type of Inhibition” value [1] is reported as “Competitive” and the Ki ([1]; Ki vs. LmARG) is reported as 11000 µM. The inhibition [1] was over 50% and the Ki (human ARGI (HsARGI) [2]) was over 30000 µM.

In the case of `NCCCC[C@H](N)C(=O)O` [L-lysine], the “selective inhibition: preference for HsARGI over LmARG” value (“selective inhibition … over LmARG” below) (human ARGI (HsARGI) [2]) is reported as “preferentially inhibited the HsARGI activity” and the inhibition at 40000 µM (human ARGI (HsARGI) [2]) is reported as over 50%.

With `NCCC[C@H](N)C(=O)O` [L-ornithine] the “selective inhibition … over LmARG” value (human ARGI (HsARGI) [2]) was “preferentially inhibited the HsARGI activity” and the inhibition at 40000 µM (human ARGI (HsARGI) [2]) was over 50%.

With `NCCCCN=C(N)N` [agmatine] the “activity as substrate of HsARGI” value (human ARGI (HsARGI) [3]) was “no activity” and the “activity as substrate of LmARG” value [4] was “did not recognize”.

For `OB(O)O` [boric acid], the “inhibition of LmARG” value [1] was over 50%, the “inhibition of HsARGI” value (human ARGI (HsARGI) [2]) was over 50% and the “selective inhibition … over LmARG” value (human ARGI (HsARGI) [2]) was “preferentially inhibited the HsARGI activity”.

With `[Cl-].[Cl-].[Zn+2]` [zinc, ZnCl2] the “LmARG activity on co-activation with manganese” value [5] was “reduced activity to zero”.

“Leishmania mexicana arginase (LmARG) (Leishmania mexicana)” gave a Km (N=C(N)NCCC[C@H](N)C(=O)O) of 25 ± 4 mM.

For `N[C@@H](CCCCB(O)O)C(=O)O` [ABH, 2(S)-amino-6-boronohexanoic acid], the “block of LmARG activity (in words)” value [1] was “completely blocked”, the “Type of Inhibition” value [1] was “Competitive” and the Ki ([1]; Ki vs. LmARG) was 1.3 µM. The inhibition [1] was over 50%, the Ki (human ARGI (HsARGI) [2]) was 3.5 µM and the “block of HsARGI activity (in words)” value (human ARGI (HsARGI) [2]) was “completely blocked”. It also gave an inhibition at 40000 µM (human ARGI (HsARGI) [2]) of over 50%.

With `Nc1nc2nc(N)[nH]c2c(=O)[nH]1` [8-aminoguanine] the “selective inhibition … over HsARGI” value [1] was “greater potency toward LmARG”, the “Type of Inhibition” value [1] was “Uncompetitive” and the Ki ([1]; Ki vs. LmARG) was under 2000 µM. The inhibition [1] was over 50% and the “selective inhibition … over LmARG” value (human ARGI (HsARGI) [2]) was “preferentially inhibited the HsARGI activity”.

With `CC(C)C[C@H](N)C(=O)O` [L-leucine] the “selective inhibition … over LmARG” value (human ARGI (HsARGI) [2]) was “preferentially inhibited the HsARGI activity” and the inhibition at 40000 µM (human ARGI (HsARGI) [2]) was over 50%.

With `N=C(NO)NCC[C@H](N)C(=O)O` [nor-NOHA, N^ω-hydroxy-nor-L-arginine] the “block of LmARG activity (in words)” value [1] was “completely blocked”, the “Type of Inhibition” value [1] was “Competitive” and the inhibition [1] was over 50%. The “block of HsARGI activity (in words)” value (human ARGI (HsARGI) [2]) was “completely blocked”, the inhibition at 40000 µM (human ARGI (HsARGI) [2]) was over 50% and the “inhibition of conversion of arginine to ornithine by intact promastigotes” value [6] was “does not inhibit”.

In the case of `N[C@@H](CCC(=O)N[C@H]1CSSC[C@H](NC(=O)CC[C@H](N)C(=O)O)C(=O)NCC(=O)NCCCNCCCCNC(=O)CNC1=O)C(=O)O` [trypanothione], the “inhibition of LmARG” value [1] is reported as over 50%, the “Type of Inhibition” value [1] is reported as “Uncompetitive” and the Ki ([1]; read-out: Ki vs. LmARG) is reported as under 5000 µM. The “inhibition of HsARGI” value (human ARGI (HsARGI) [2]) was over 50% and the “selective inhibition … over LmARG” value (human ARGI (HsARGI) [2]) was “preferentially inhibited the HsARGI activity”.

For `N=C(NO)NCCC[C@H](N)C(=O)O` [NOHA, N^ω-hydroxy-L-arginine], the “block of LmARG activity (in words)” value [1] was “completely blocked”, the “inhibition of LmARG” value [1] was over 50% and the “Type of Inhibition” value [1] was “Competitive”. For the same compound, the Ki ([1]; read-out: Ki vs. LmARG) was 85 µM, the “block of HsARGI activity (in words)” value (human ARGI (HsARGI) [2]) was “completely blocked” and the “inhibition of HsARGI” value (human ARGI (HsARGI) [2]) was over 50%. For the same compound, the EC50 [7] was 6000 µM and the EC50 (L. major promastigotes) was 40 µM.

In the case of `NC(N)=NCCC[C@@H](N)C(=O)O` [D-arginine], the “activity as substrate of HsARGI” value (human ARGI (HsARGI) [3]) is reported as “no activity” and the “activity as substrate of LmARG” value [4] is reported as “did not recognize”.

For `NC(CCS)C(=O)O` (racemic) [DL-homocysteine], the “inhibition of LmARG” value [1] was over 50% and the “selective inhibition … over HsARGI” value [1] was “greater potency toward LmARG”.
